Measured values published in BindingDB's records for doi:10.1016/s0960-894x(02)00699-6 (Sapienza University of Rome, 2002).

target: Diamine oxidase [copper-containing] (Sus scrofa); test: Inhibitory activity against Swine kidney diamine oxidase (SKDAO)

SMILES | Ki [µM]
CC(=O)N1N=C(c2ccc(O)cc2O)CC1c1cccc(C)c1 (centres undefined) [1-[3-(2,4-Dihydroxy-phenyl)-5-m-tolyl-4,5-dihydro-pyrazol-1-yl]-ethanone] | 25
CC(=O)N1N=C(c2ccc(O)cc2O)CC1c1ccccc1C (centres undefined) [1-[3-(2,4-Dihydroxy-phenyl)-5-o-tolyl-4,5-dihydro-pyrazol-1-yl]-ethanone] | 100
CC(=O)N1N=C(c2ccccc2O)CC1c1cccc(C)c1 (centres undefined) [1-[3-(2-Hydroxy-phenyl)-5-m-tolyl-4,5-dihydro-pyrazol-1-yl]-ethanone] | 8
CC(=O)N1N=C(c2ccccc2O)CC1c1ccccc1C (centres undefined) [1-[3-(2-Hydroxy-phenyl)-5-o-tolyl-4,5-dihydro-pyrazol-1-yl]-ethanone] | 5.5
